Measurements as given in patent US20240352145A1, “EFFICACY OF ANTI-TROP-2-SN-38 ANTIBODY DRUG CONJUGATES FOR THERAPY OF TUMORS RELAPSED/REFRACTORY TO CHECKPOINT INHIBITORS” (Immunomedics, Inc., priority 2016, published 2024).

Key:
COLO 205 tumors = assay: COLO 205 xenograft therapy; assay type: in vivo; details: for tumor volume (TV): 0.4 mg/kg, q4dx8, 28-day treatment period
Calu-3 = Calu-3 xenograft therapy; assay type: in vivo, mouse; details: for tumor volume (TV): 0.04 mg SN-38/kg every 4 days x 4; for outcome: 0.4 mg/kg SN-38
Capan-1 tumors = assay: Capan-1 xenograft therapy; assay type: in vivo, mouse; details: for average tumor size: day 35, 0.4 mg SN-38/kg; for tumor volume (TV): day 49, 0.4 mg/kg SN-38; for tumor-free mice at end of study: day 140
Procedure: (§1) NCr female athymic nude (nu/nu) mice, 4 to 8 weeks old, and male Swiss-Webster mice, 10 weeks old, were purchased from Taconic Farms. Tolerability studies were performed in Cynomolgus monkeys (Macaca fascicularis; 2.5-4 kg male and female) by SNBL USA, Ltd. Animals were implanted subcutaneously with different human cancer cell lines. Tumor volume (TV) was determined by measurements in 2 dimensions using calipers, with volumes defined as: L×w^2/2, where L is the longest dimension of the tumor and w is the shortest. […] This dosing frequency reflected a consideration of the conjugate's serum half-life […], to allow a more continuous exposure to the ADC.
(§2) Statistics—Growth curves are shown as percent change in initial TV over time. Statistical analysis of tumor growth was based on area under the curve (AUC). Profiles of individual tumor growth were obtained through linear-curve modeling. An f-test was employed to determine equality of variance between groups before statistical analysis of growth curves. A 2-tailed t-test was used to assess statistical significance between the various treatment groups and controls, except for the saline control, where a 1-tailed t-test was used (significance at P≤0.05). Statistical comparisons of AUC were performed only up to the time that the first animal within a group was euthanized due to progression.

BxPC-3 [1] = assay: ADCC activity of hRS7-ADC conjugates; assay type: cell-based, human; details: 33.3 nM; PBMC effector to target ratio 100:1
Description: PBMCs were purified from blood purchased from the Blood Center of New Jersey. A Trop-2-positive human pancreatic adenocarcinoma cell line (BxPC-3) was used as the target cell line with an effector to target ratio of 100:1.

[2] = mouse, in vivo
Description: Pharmacokinetics—Naive female NCr nude (nu/nu) mice, 8-10 weeks old, were purchased from Taconic Farms (Germantown, NY). […] ELISA was utilized to determine serum concentrations of total hRS7 IgG by competing for the binding to an anti-hRS7 IgG idiotype antibody with a horseradish peroxidase conjugate of hRS7. […] Pharmacokinetic (PK) parameters were computed by noncompartmental analysis using Phoenix WinNonlin software (version 6.3; Pharsight Corp., Mountainview, CA).

Trop-2 = biological target: T1, Trop-2 (Homo sapiens, UniProt P09758); assay: In vitro cell binding, multiple cell lines; set-up: endogenous in cells; host or cells: human cancer cell lines (ATCC)
T1 sequence (P09758 27-323): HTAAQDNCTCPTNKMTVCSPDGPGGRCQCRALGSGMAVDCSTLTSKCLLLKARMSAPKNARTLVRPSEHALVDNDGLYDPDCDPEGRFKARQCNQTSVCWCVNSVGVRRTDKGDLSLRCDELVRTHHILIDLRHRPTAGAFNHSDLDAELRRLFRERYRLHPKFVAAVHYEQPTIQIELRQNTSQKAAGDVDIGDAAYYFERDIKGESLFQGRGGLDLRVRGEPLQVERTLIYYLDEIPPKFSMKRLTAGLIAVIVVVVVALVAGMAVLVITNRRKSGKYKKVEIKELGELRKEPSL
Procedure: In Vitro Cell Binding—LumiGLO Chemiluminescent Substrate System (KPL, Gaithersberg, MD) was used to detect antibody binding to cells. Briefly, cells were plated into a 96 black-well, flat-clear-bottom plate overnight. Antibodies were serially diluted 1:2 and added in triplicate, yielding a concentration range from 0.03 to 66.7 nM. After incubating for 1 h at 4° C., the media was removed and the cells washed with fresh cold media followed by the addition of a 1:20,000 dilution of goat-antihuman horseradish peroxidase-conjugated secondary antibody (Jackson Immunoresearch, West Grove, PA) for 1 h at 4° C. The plates were again washed before the addition of the LumiGLO reagent. Plates were read for luminescence using an Envision plate reader (Perkin Elmer, Boston MA). Data were analyzed by non-linear regression to determine the equilibrium dissociation constant (KD). Statistical comparisons of KD-values were made with Prism GraphPad Software (v4.03) (Advanced Graphics Software, Inc.; Encinitas, CA) using an F-Test on the best-fit curves for the data. Significance was set at P<0.05.

[3] = Irinotecan MTD and conversion in mice; assay type: in vivo, mouse
[4] = animals given irinotecan; Goldenberg et al., 2014; cited from earlier work
[5] = weekly x 4 doses; Camptosar package insert; cited from earlier work
MDA-MB-468 TNBC tumors = assay: MDA-MB-468 TNBC xenograft; assay type: in vivo, mouse; details: one animal each, tumors progressed to ~0.7 cm^3 on irinotecan
BxPC-3 [6] = assay: dsDNA breaks, γH2AX induction in BxPC-3; assay type: cell-based, human; details: BxPC-3, 20 μg/ml for 30 min
Procedure: Assessment of Double-Stranded DNA Breaks In Vitro—For drug activity testing, BxPC-3 cells were seeded in 6-well plates at 5×10^5 cells/well and held at 37° C. overnight. […] The following morning, cells were trypsinized briefly, spun down, stained with Fixable Viability Stain 450 (BD Biosciences, San Jose, CA), washed with 1% BSA-PBS, and then fixed in 4% formalin for 15 min, washed again and permeabilized in 0.15% Triton-X100 in PBS for another 15 min. After washing twice with 1% BSA-PBS, cells were incubated with mouse anti-γH2AX-AF488 (EMD Millipore Corporation, Temecula, CA) for 45 min at 4° C. The signal intensity of γH2AX was measured by flow cytometry using a BD FACSCanto (BD Biosciences, San Jose, CA).

[7] = test system: NCI-N87 human gastric tumor xenografts; assay: Dose schedules and chronic dosing, NCI-N87 xenograft; assay type: in vivo, mouse; details: four cycles
Description: (§3) In Vivo Therapeutic Studies—NCr female athymic nude (nu/nu) mice, 4-8 weeks old, were purchased from Taconic Farms (Germantown, NY). NCI-N87 gastric tumor xenografts were established by harvesting cells from tissue culture and making a final cell suspension 1:1 in matrigel (BD Bioscience; San Jose, CA), with each mouse receiving a total of 1×10^7 cells s.c. in the right flank. For BxPC-3. xenografts of 1 g were harvested, and a tumor suspension made in HBSS to a concentration of 40% tumor w/v. This suspension was mixed 1:1 with matrigel for a final tumor suspension of 20% w/v. […] For IHC, tumors were allowed to grow to approximately 0.5 cm^3 before the mice were euthanized and the tumors removed, formalin-fixed and paraffin-embedded. For therapy studies, mice were randomized into treatment groups and therapy begun when tumor volumes were approximately 0.25 cm^3.
(§4) Mice were euthanized and deemed to have succumbed to disease once tumors grew to greater than 1.0 cm^3 in size. […] Time to progression (TTP) was determined as time post-therapy initiation when the tumor grew more than 20% in size from its nadir.
A similar dose schedule experiment was performed in mice bearing NCI-N87 human gastric tumor xenografts (not shown). […] Likewise, in terms of overall survival, while all three dose schedules provided a significant survival benefit when compared to untreated control (P<0.0001), there were no differences between any of these three different schedules.
In all, four treatment cycles were administered to the animals.

[8] = test system: BxPC-3 human pancreatic tumors; assay: BxPC-3 xenograft therapy; assay type: in vivo, mouse; details: day 21; equivalent amounts of ADC
Procedure: as §1, §2

[9] = test system: human gastric carcinoma xenograft, NCI-N87; assay: NCI-N87 gastric carcinoma xenograft, Example 17; assay type: in vivo, mouse
Description: as §3, §4
Survival studies were analyzed using Kaplan-Meier plots (log-rank analysis), using the Prism GraphPad Software (v4.03) software package (Advanced Graphics Software, Inc., Encinitas, CA).

[10] = in vivo; cited from earlier work
Capan-1 = assay: Combination 90Y-hPAM4 RAIT + ADC, Capan-1 xenograft; assay type: in vivo, mouse
Description: Objective responses occurred in most animals, but they were more robust in both of the combination groups as compared to each agent given alone. […] These studies provide the first evidence that combined radioimmunotherapy and ADC enhances efficacy at safe doses.

pancreatic cancer = assay: PAM4 clinical trial, 90Y-hPAM4 with gemcitabine; assay type: in vivo, human; details: 22 CT-assessable patients
Procedure: In the ongoing PAM4 clinical trials, a four week clinical treatment cycle is performed. In week 1, subjects are administered a dose of ^111In-hPAM4, followed at least 2 days later by gemcitabine dose. In weeks 2, 3 and 4, subjects are administered a ^90Y-hPAM4 dose, followed at least 2 days later by gemcitabine (200 mg/m^2). Escalation started at 3×6.5 mCi/m^2. The maximum tolerated dose in front-line pancreatic cancer patients was 3×15 mCi/m^2 (hematologic toxicity is dose-limiting).

[11] = 0.2 mg/kg SN-38 twice weekly x 4 weeks

Molecule: hRS7-CL2-SN-38
- tumor growth vs untreated and hA20-CL2A-SN-38 (COLO 205 tumors; 0.4 mg/kg SN-38 twice weekly x 4 weeks): significantly inhibited tumor growth
- tumor volume (TV) (COLO 205 tumors): 0.16±0.09 cm^3
- tumor volume (TV) (Calu-3): 0.14±0.22 cm^3
- outcome (Calu-3): remained tumor-free until the end of the study on day 147
- tumor growth vs untreated and hA20-CL2A-SN-38 (Capan-1 tumors; [11]): significantly inhibited tumor growth
- average tumor size (Capan-1 tumors): 0.04±0.05 cm^3
- tumor volume (TV) (Capan-1 tumors): 0.17±0.18 cm^3
- tumor-free mice at end of study (Capan-1 tumors; [11]): 40%

Molecule: hRS7-NEM [reference compound]
- specific lysis (ADCC) (BxPC-3 [1]): no difference between hRS7-NEM and sacituzumab govitecan
- half-life, Cmax, AUC, clearance, MRT vs parental hRS7 [2]: no significant differences
- KD (Trop-2): sub-nanomolar range

Molecule: hLL2-CL2-SN-38 [reference compound]
- tumor volume (TV) (Calu-3): 0.80±0.91 cm^3
- outcome (Calu-3): tumors regrew

Molecule: CCc1c2c(nc3ccc(OC(=O)N4CCC(N5CCCCC5)CC4)cc13)-c1cc3c(c(=O)n1C2)COC(=O)[C@]3(O)CC [irinotecan, 7-ethyl-10-[4-(1-piperidino)-1-piperidino]carbonyloxycamptothecin]
- MTD ([3]; IV, single injection): 40 mg/kg
- MTD ([3]; q2dx5): 24 mg SN-38/kg
- efficacy of irinotecan at MTD (COLO 205 tumors; 24 mg SN-38/kg, q2dx5): as effective as hRS7-CL2-SN-38
- share of total serum SN-38 that is glucuronidated [4]: > 50%
- grades 3 and 4 late diarrhea [5]: 31%
- average tumor size (Capan-1 tumors): 1.78±0.62 cm^3
- decrease in tumor size after re-treatment (MDA-MB-468 TNBC tumors): 23%

Molecule: hA20-CL2-SN-38 [reference compound]
- tumor volume (TV) (COLO 205 tumors): 1.19±0.59 cm^3
- tumor volume (TV) (Capan-1 tumors): 0.80±0.68 cm^3

Molecule: hA20-CL2A-SN-38 [reference compound]
- Percent Positive, γH2AX (BxPC-3 [6]; untreated 18.8 ± 6.3, listed as hA20-SN-38): 12.7 ± 2.4%
- Mean Fluorescence Intensity, γH2AX (BxPC-3 [6]; untreated 2516 ± 191): 2246 ± 58
- tumor-free mice at end of study (Capan-1 tumors; [11]): 20%
- TTP ([7]; 0.5 mg once a week for two weeks, one week off): 4.7 ± 2.2 days
- median survival ([7]; chronic dosing): 21 days
- tumor volume (TV) [8]: 1.05±0.73 cm^3
- median survival time (MST) ([9]; 14 days for saline control): 24 days
- mean time to progression (TTP) ([9]; mouse, in vivo): 4.1 ± 2.0 days

Molecule: veltuzumab
- immunogenicity in subjects [10]: less immunogenic in subjects than rituximab

Molecule: hRS7-Pro-2-PDox
- specific lysis (ADCC) (BxPC-3 [1]): not significantly different

B1: ^90Y-hPAM4 (conjugate, chains of the INN, looked up)
VH: QVQLQQSGAEVKKPGASVKVSCEASGYTFPSYVLHWVKQAPGQGLEWIGYINPYNDGTQYNEKFKGKATLTRDTSINTAYMELSRLRSDDTAVYYCARGFGGSYGFAYWGQGTLVTVSS
VL: DIQLTQSPSSLSASVGDRVTMTCSASSSVSSSYLYWYQQKPGKAPKLWIYSTSNLASGVPARFSGSGSGTDFTLTISSLQPEDSASYFCHQWNRYPYTFGGGTRLEIK
modifications: 90Y radiolabel
- tumor-free mice after 20 weeks (Capan-1; 75 μCi 90Y-hPAM4 level, ADC alone, or their combination, n=10): 1 of 10
- tumor-free animals (Capan-1; 130 μCi 90Y-hPAM4 level, n=10): 5 of 10
- disease control rate (CR+PR+SD) (pancreatic cancer): 68%
- partial responses (pancreatic cancer): 23%
- stabilization as best response (pancreatic cancer): 45%

B2: hPAM4 (antibody, chains of the INN, looked up, V domains shown)
VH: B1 VH
VL: B1 VL
- anti-tumor activity of unconjugated antibodies (Capan-1; given alone): Neither unconjugated hPAM4 nor hRS7 antibodies had anti-tumor activity
